Test results as given in US4885309A, “Therapeutic treatment of leukotriene-mediated dermal inflammation by topical administration of 3,4-dihydro-2H-1-benzopyran derivatives” (Hoffmann-La Roche Inc., priority 1986, dated 1989).

How the values were obtained:
[1] = tested on: arachidonic acid-induced ear edema; assay: Mouse ear edema test (in vivo), arachidonic acid-induced; design: species or system CD-1 male mice; conditions: for % Inhibition (± S.E.M.): eight mice
Text: Dermatol. 80: 48 (1983), and Humes, Opas and Bonney, "Arachidonic Acid Metabolites in Mouse Ear Edema". Advances in Inflammation Research, 11: 57 (1986).
CD-1 male mice weighing 15 to 25 g were employed, and they were designated as follows: (1) Control Group, in which no arachidonic acid or test compound were to be applied, (2) Arachidonic Acid-Treated Group, in which no test compound was to be applied, and (3) Treated Group, in which the test compound was to be applied first, followed by the application of arachidonic acid. The test compound was again racemic-6-acetyl-7-[5-(4-acetyl-3-hydroxy-2-propylphenoxy)pentyloxy]-3,4-dihydro-2H-1-benzopyran-2-carboxylic acid.
In the case of the Group (3) animals, the test compound, dissolved in acetone, was applied to the dorsal surface of the right ear of the mouse with a 25-microliter pipettor, with the dose of the test compound being varied as shown in Tables 3 and 4. After 0.5 hour in some cases and 4 hours in others, the arachidonic acid was topically applied in the same manner as above to the pretreated ear areas. In each case of arachidonic acid application, an amount of 0.5 mg dissolved in 25 microliters of acetone was used. Application was made topically to the dorsal surface of the right ear with a 25-microliter pipettor. After one hour, the mice were sacrificed by carbon dioxide inhalation. A 6 mm-diameter standard biopsy punch was used to obtain a uniform tissue sample from the ear of each mouse so treated, and the tissue samples were weighed to the nearest 0.1 mg. The percent inhibition of ear edema formation was calculated as follows: [formula]

[2] = tested on: leukotriene-induced vascular permeability; assay: Inhibition of leukotriene (LTD4)-induced vascular permeability by topical test compound, guinea pigs; type: in vivo, male guinea pigs (Hartley strain); conditions: for % Inhibition (± S.E.M.): guinea pig, topical 4 hours prior to LTD4 injection
Method: (§1) The test compound was administered to the same number of animals as before by applying one drop (50 microliters) directly on the skin surface of a 10% by weight solution of the test compound in dimethylsulfoxide (DMSO). This amounted to 5 mg of test compound per site of application. […] Evans blue dye (0.5% in saline) was then injected intravenously into each animal, using the same procedure describd for Part (a), above. After thirty minutes the animals were sacrificed, the dorsal skins were removed, and the extent of dye migration was measured as above. The effectiveness of the test compound was calculated as the Percent (%) Inhibition of Leukotriene-Induced Permeability, as follows: [formula] where MWS=mean wheal size.

[3] = tested on: leukotriene-induced vascular permeability; assay: Inhibition of leukotriene (LTD4)-induced vascular permeability by topical test compound, rats; type: in vivo, male rats (Sprague-Dawley strain); conditions: for % Inhibition (± S.E.M.): rat, topical 4 hours prior to LTD4 injection
Method: as §1

CCCc1c(OCCCCCOc2cc3c(cc2C(C)=O)CCC(C(=O)O)O3)ccc(C(C)=O)c1O (racemic) [test compound, 6-acetyl-7-[5-(4-acetyl-3-hydroxy-2-propylphenoxy)pentyloxy]-3,4-dihydro-2H-1-benzopyran-2-carboxylic acid]
% Inhibition (± S.E.M.) ([1]; 0.5 Hour Pretreatment, 0.1 mg applied topically in 25 μl acetone): 19 ± 10%
% Inhibition (± S.E.M.) ([1]; 0.5 Hour Pretreatment, 0.2 mg applied topically in 25 μl acetone): 21 ± 12%
% Inhibition (± S.E.M.) ([1]; 0.5 Hour Pretreatment, 0.5 mg applied topically in 25 μl acetone): 42 ± 12%
% Inhibition (± S.E.M.) ([1]; 0.5 Hour Pretreatment, 1.0 mg applied topically in 25 μl acetone): 63 ± 4%
% Inhibition (± S.E.M.) ([1]; 0.5 Hour Pretreatment, 2.0 mg applied topically in 25 μl acetone): 65 ± 1%
% Inhibition (± S.E.M.) ([1]; 4 Hour Pretreatment, 0.1 mg applied topically in 25 μl acetone): 26 ± 9%
% Inhibition (± S.E.M.) ([1]; 4 Hour Pretreatment, 0.2 mg applied topically in 25 μl acetone): 31 ± 12%
% Inhibition (± S.E.M.) ([1]; 4 Hour Pretreatment, 0.5 mg applied topically in 25 μl acetone): 28 ± 9%
% Inhibition (± S.E.M.) ([1]; 4 Hour Pretreatment, 1.0 mg applied topically in 25 μl acetone): 37 ± 7%
% Inhibition (± S.E.M.) ([1]; 4 Hour Pretreatment, 2.0 mg applied topically in 25 μl acetone): 68 ± 7%
inhibition of edema ([1]; amounts up to 2 mg, both 0.5 and 4 hours prior to arachidonic acid application): significant inhibition of edema
% Inhibition (± S.E.M.) ([2]; 5.0% in DMSO): 11 ± 3%
% Inhibition (± S.E.M.) ([2]; 10.0% in DMSO): 33 ± 3%
% Inhibition (± S.E.M.) ([2]; 15.0% in DMSO): 43 ± 4%
% Inhibition (± S.E.M.) ([2]; 25.0% in DMSO): 49 ± 4%
inhibition of leukotriene-induced vascular permeability ([2]; guinea pigs, 5 mg per site (10% in DMSO) topical, time variation): inhibited leukotriene-induced vascular permeability
time of peak activity (inhibition of leukotriene-induced vascular permeability) ([2]; guinea pigs, 5 mg per site (10% in DMSO) topical, LTD4 0.4 microgram per site): 2 to 4 h
inhibition of leukotriene-induced vascular permeability increase, variation of concentration ([2]; guinea pigs, topical 4 hours prior to leukotriene injection): inhibited the leukotriene-induced vascular permeability increase in a dose-related manner
% Inhibition (± S.E.M.) ([3]; 2.5% in DMSO): 28 ± 4%
% Inhibition (± S.E.M.) ([3]; 5.0% in DMSO): 50 ± 6%
% Inhibition (± S.E.M.) ([3]; 10.0% in DMSO): 59 ± 6%
% Inhibition (± S.E.M.) ([3]; 25.0% in DMSO): 67 ± 5%
time of peak activity (inhibition of leukotriene-induced vascular permeability) ([3]; rats, relative to guinea pigs (2-4 hours), 5 mg per site (10% in DMSO) topical, LTD4 0.4 microgram per site): somewhat later
inhibition of leukotriene-induced vascular permeability ([3]; rats, 5 mg per site (10% in DMSO) topical, time variation): inhibited leukotriene-induced vascular permeability
inhibition of leukotriene-induced vascular permeability increase, variation of concentration ([3]; rats, topical 4 hours prior to leukotriene injection): inhibited the leukotriene-induced vascular permeability increase in a dose-related manner
